US8119624B2, “Fused phenyl amido heterocyclic compounds” (Pfizer Inc., priority 2006, dated 2012)

Target: T1, Full-length glucokinase (beta cell isoform) (Homo sapiens, UniProt P35557)
T1 construct: Full-length glucokinase (beta cell isoform) was His-tagged at N-terminus; His tag (N); made in house
T1 sequence (P35557 1-465): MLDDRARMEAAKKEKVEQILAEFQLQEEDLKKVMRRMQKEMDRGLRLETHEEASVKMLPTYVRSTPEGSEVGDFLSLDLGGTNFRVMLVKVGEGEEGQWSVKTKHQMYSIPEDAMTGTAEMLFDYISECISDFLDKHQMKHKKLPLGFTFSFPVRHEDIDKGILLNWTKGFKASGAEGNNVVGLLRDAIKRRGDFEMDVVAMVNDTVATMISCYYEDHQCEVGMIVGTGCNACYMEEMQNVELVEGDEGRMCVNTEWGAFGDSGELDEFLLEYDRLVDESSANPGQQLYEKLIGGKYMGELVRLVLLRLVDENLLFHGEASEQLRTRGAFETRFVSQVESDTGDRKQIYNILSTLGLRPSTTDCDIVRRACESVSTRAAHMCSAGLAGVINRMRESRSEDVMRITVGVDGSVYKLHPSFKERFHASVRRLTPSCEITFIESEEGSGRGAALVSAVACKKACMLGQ
Assay: Glucokinase biochemical assay (PK/LDH-coupled, NADH depletion at 340 nm): % activation, EC50, % max activation
Details: 5 mM glucose; for activation at 10 µM: 10 uM compound, % Activation=(Va/Vo−1)×100, read-out: % Activation at 10 uM; for EC50: GK activation, read-out: EC50; for Emax: fitted maximum activation, read-out: % Max Activation
Summary of the method: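 Activation expressed as (Va/Vo−1)×100, where initial rates with and without compound come from NADH depletion at 340 nm over 200–900 s. Enzyme is His-tagged human beta-cell GK, full length, run at room temperature in HEPES buffer with 1 mM ATP and 5 mM glucose. DMSO 1%.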

| activation at 10 µM | EC50 | Emax | SMILES |
| --- | --- | --- | --- |
| 292% | 210 nM | 272% | Cn1ncc(NC(=O)c2cc(Oc3ccc(S(=O)(=O)C4CC4)cc3)c3c(c2)OC(C)(C)C3)n1 [Example 131, 4-(4-Cyclopropanesulfonyl-phenoxy)-2,2-dimethyl-2,3-dihydro-benzofuran-6-carboxylic acid (2-methyl-2H-[1,2,3]triazol-4-yl)-amide] |
| 239% | 97 nM | 257% | CCS(=O)(=O)c1ccc(Oc2cc(C(=O)Nc3cnn(C)n3)cc3c2CC(C)(C)O3)cc1F [Example 135, 4-(4-Ethanesulfonyl-3-fluoro-phenoxy)-2,2-dimethyl-2,3-dihydro-benzofuran-6-carboxylic acid (2-methyl-2H-[1,2,3]triazol-4-yl)-amide] |
| 237% | 120 nM | 236% | CCS(=O)(=O)c1ccc(Oc2cc(C(=O)Nc3ccn(C)n3)cc3c2CC(C)(C)O3)cc1F [Example 136, 4-(4-Ethanesulfonyl-3-fluoro-phenoxy)-2,2-dimethyl-2,3-dihydro-benzofuran-6-carboxylic acid (1-methyl-1H-pyrazol-3-yl)-amide] |
| 212% | 270 nM | 218% | Cn1ccc(NC(=O)c2cc(Oc3ccc(S(C)(=O)=O)cc3Cl)c3c(c2)OC(C)(C)C3)n1 [Example 137, 4-(2-Chloro-4-methanesulfonyl-phenoxy)-2,2-dimethyl-2,3-dihydro-benzofuran-6-carboxylic acid (1-methyl-1H-pyrazol-3-yl)-amide] |
| 218% | 340 nM | 224% | CN(C)S(=O)(=O)c1cc(F)c(Oc2cc(C(=O)Nc3cnn(C)n3)cc3c2CC(C)(C)O3)cc1F [Example 138, 4-(4-Dimethylsulfamoyl-2,5-difluoro-phenoxy)-2,2-dimethyl-2,3-dihydro-benzofuran-6-carboxylic acid (2-methyl-2H-[1,2,3]triazol-4-yl)-amide] |
| 196% | 170 nM | 236% | Cn1ncc(NC(=O)c2cc(Oc3ccc(S(=O)(=O)C4CC4)c(F)c3)c3c(c2)OC(C)(C)C3)n1 [Example 140, 4-(4-Cyclopropanesulfonyl-3-fluoro-phenoxy)-2,2-dimethyl-2,3-dihydro-benzofuran-6-carboxylic acid (2-methyl-2H-[1,2,3]triazol-4-yl)-amide] |

More lines, now with the values behind:

| SMILES | activation at 10 µM | EC50 | Emax |
| --- | --- | --- | --- |
| CN(C)S(=O)(=O)c1ccc(Oc2cc(C(=O)Nc3cnn(C)n3)cc3c2CC(C)(C)O3)cc1F [Example 132, 4-(4-Dimethylsulfamoyl-3-fluoro-phenoxy)-2,2-dimethyl-2,3-dihydro-benzofuran-6-carboxylic acid (2-methyl-2H-[1,2,3]triazol-4-yl)-amide] | 288% | 170 nM | 280% |
| CCS(=O)(=O)c1ccc(Oc2cc(C(=O)Nc3cnn(C)n3)cc3c2CC(C)(C)O3)cc1 [Example 133, 4-(4-Ethanesulfonyl-phenoxy)-2,2-dimethyl-2,3-dihydro-benzofuran-6-carboxylic acid (2-methyl-2H-[1,2,3]triazol-4-yl)-amide] | 308% | 120 nM | 293% |
| CN(C)S(=O)(=O)c1ccc(Oc2cc(C(=O)Nc3cnn(C)n3)cc3c2CC(C)(C)O3)cc1 [Example 134, 4-(4-Dimethylsulfamoyl-phenoxy)-2,2-dimethyl-2,3-dihydro-benzofuran-6-carboxylic acid (2-methyl-2H-[1,2,3]triazol-4-yl)-amide] | 300% | 190 nM | 271% |
| Cn1ccc(NC(=O)c2cc(Oc3ccc(S(C)(=O)=O)c(Cl)c3)c3c(c2)OC(C)(C)C3)n1 [Example 139, 4-(3-Chloro-4-methanesulfonyl-phenoxy)-2,2-dimethyl-2,3-dihydro-benzofuran-6-carboxylic acid (1-methyl-1H-pyrazol-3-yl)-amide] | 242% | 550 nM | 254% |
